Laboratory results from patent US20250127162A1, “METHODS AND COMPOSITIONS FOR CONTROLLING PESTS IN RICE” (Globachem NV, priority 2022, published 2025).

System: Chilo suppressalis
Assay: Rice field trials, Chilo suppressalis insect damage / white heads (Example 1, Trials 3-4, Thailand)
Assay type: in vivo
Conditions: Trial 3
Experimental: All applications were made with an EC formulation containing 650 g/L of pelargonic acid (e.g., 685 g/L of 95% purity pelargonic acid), an anionic emulsifier and a branched fatty acid ester solvent. […] Trials 1 4 assessing the use of pelargonic acid for controlling Chilo suppressalis in rice were conducted in Spain and Thailand. Application A was made to the crops at the beginning of infestations; for these trials, Stage BBCH 59; Application B was made 14 days after Application A. Trial 3 was conducted in Thailand using a water volume of 500 L/ha of water per application unless otherwise indicated. Insect Damage ([…] %), Insect Damage (Number) and Phytotoxicity were assessed at various treatment evaluation intervals. Population levels were recorded by counting number of rice plants per hill, number of white head (damage from rice stem borer) followed by calculation of % insect damage. Trial 4 was conducted in Thailand using a water volume of 500 L/ha of water per application unless otherwise indicated. Insect Damage ([…] %), Insect Damage (Number) and Phytotoxicity were assessed at various treatment evaluation intervals. Population levels were recorded by counting number of rice plants per hill, number of white head (damage from rice stem borer) followed by calculation of % insect damage.

[1] = 0 DAA, water volume 500 L/ha, rate in treatment name, Prevathon 0.5 L/ha, listed as PA 585 g/ha
[2] = 0 DAA, water volume 500 L/ha, rate in treatment name, Prevathon 0.5 L/ha, listed as PA 975 g/ha
[3] = 0 DAA, water volume 500 L/ha, rate in treatment name, Prevathon 0.5 L/ha, listed as PA 1300 g/ha
[4] = 0 DAA, water volume 500 L/ha, rate in treatment name, Prevathon 0.5 L/ha, listed as PA 2600 g/ha
[5] = 0 DAB, water volume 500 L/ha, rate in treatment name, Prevathon 0.5 L/ha, listed as PA 585 g/ha
[6] = 0 DAB, water volume 500 L/ha, rate in treatment name, Prevathon 0.5 L/ha, listed as PA 975 g/ha
[7] = 0 DAB, water volume 500 L/ha, rate in treatment name, Prevathon 0.5 L/ha, listed as PA 1300 g/ha
[8] = 0 DAB, water volume 500 L/ha, rate in treatment name, Prevathon 0.5 L/ha, listed as PA 2600 g/ha
[9] = 7 DAA, water volume 500 L/ha, rate in treatment name, Prevathon 0.5 L/ha, listed as PA 585 g/ha
[10] = 7 DAA, water volume 500 L/ha, rate in treatment name, Prevathon 0.5 L/ha, listed as PA 975 g/ha
[11] = 7 DAA, water volume 500 L/ha, rate in treatment name, Prevathon 0.5 L/ha, listed as PA 1300 g/ha
[12] = 7 DAA, water volume 500 L/ha, rate in treatment name, Prevathon 0.5 L/ha, listed as PA 2600 g/ha
[13] = 7 DAB, water volume 500 L/ha, rate in treatment name, Prevathon 0.5 L/ha, listed as PA 585 g/ha
[14] = 7 DAB, water volume 500 L/ha, rate in treatment name, Prevathon 0.5 L/ha, listed as PA 975 g/ha
[15] = 7 DAB, water volume 500 L/ha, rate in treatment name, Prevathon 0.5 L/ha, listed as PA 1300 g/ha
[16] = 7 DAB, water volume 500 L/ha, rate in treatment name, Prevathon 0.5 L/ha, listed as PA 2600 g/ha
[17] = 10 DAA, water volume 500 L/ha, rate in treatment name, Prevathon 0.5 L/ha, listed as PA 585 g/ha
[18] = 10 DAA, water volume 500 L/ha, rate in treatment name, Prevathon 0.5 L/ha, listed as PA 975 g/ha
[19] = 10 DAA, water volume 500 L/ha, rate in treatment name, Prevathon 0.5 L/ha, listed as PA 1300 g/ha
[20] = 10 DAA, water volume 500 L/ha, rate in treatment name, Prevathon 0.5 L/ha, listed as PA 2600 g/ha
[21] = 10 DAB, water volume 500 L/ha, rate in treatment name, Prevathon 0.5 L/ha, listed as PA 585 g/ha
[22] = 10 DAB, water volume 500 L/ha, rate in treatment name, Prevathon 0.5 L/ha, listed as PA 975 g/ha
[23] = 10 DAB, water volume 500 L/ha, rate in treatment name, Prevathon 0.5 L/ha, listed as PA 1300 g/ha
[24] = 10 DAB, water volume 500 L/ha, rate in treatment name, Prevathon 0.5 L/ha, listed as PA 2600 g/ha
[25] = 14 DAB, water volume 500 L/ha, rate in treatment name, Prevathon 0.5 L/ha, listed as PA 585 g/ha
[26] = 14 DAB, water volume 500 L/ha, rate in treatment name, Prevathon 0.5 L/ha, listed as PA 975 g/ha
[27] = 14 DAB, water volume 500 L/ha, rate in treatment name, Prevathon 0.5 L/ha, listed as PA 1300 g/ha
[28] = 14 DAB, water volume 500 L/ha, rate in treatment name, Prevathon 0.5 L/ha, listed as PA 2600 g/ha
[29] = 21 DAB, water volume 500 L/ha, rate in treatment name, Prevathon 0.5 L/ha, listed as PA 585 g/ha
[30] = 21 DAB, water volume 500 L/ha, rate in treatment name, Prevathon 0.5 L/ha, listed as PA 975 g/ha
[31] = 21 DAB, water volume 500 L/ha, rate in treatment name, Prevathon 0.5 L/ha, listed as PA 1300 g/ha

CCCCCCCCC(=O)O [PA 650 g/ha, pelargonic acid]
DAMINS % (insect damage, % white heads) (0 DAA, water volume 200 L/ha): 0.83% | DAMINS (number): mean number of insect damage (white head symptoms) (0 DAA, water volume 200 L/ha): 3.4 | DAMINS % (insect damage, % white heads) [1]: 0.79% | DAMINS (number): mean number of insect damage (white head symptoms) [1]: 3.23 | DAMINS % (insect damage, % white heads) [2]: 0.9% | DAMINS (number): mean number of insect damage (white head symptoms) [2]: 3.8 | DAMINS % (insect damage, % white heads) [3]: 0.75% | DAMINS (number): mean number of insect damage (white head symptoms) [3]: 3.11 | DAMINS % (insect damage, % white heads) [4]: 0.74% | DAMINS (number): mean number of insect damage (white head symptoms) [4]: 3.14 | DAMINS % (insect damage, % white heads) (0 DAB, water volume 200 L/ha): 0.25% | DAMINS (number): mean number of insect damage (white head symptoms) (0 DAB, water volume 200 L/ha): 0.94 | DAMINS % (insect damage, % white heads) [5]: 0.6% | DAMINS (number): mean number of insect damage (white head symptoms) [5]: 2.54 | DAMINS % (insect damage, % white heads) [6]: 0.46% | DAMINS (number): mean number of insect damage (white head symptoms) [6]: 1.91 | DAMINS % (insect damage, % white heads) [7]: 0.39% | DAMINS (number): mean number of insect damage (white head symptoms) [7]: 1.61 | DAMINS % (insect damage, % white heads) [8]: 0.29% | DAMINS (number): mean number of insect damage (white head symptoms) [8]: 1.23 | DAMINS % (insect damage, % white heads) (7 DAA, water volume 200 L/ha): 0.29% | DAMINS (number): mean number of insect damage (white head symptoms) (7 DAA, water volume 200 L/ha): 1.16 | DAMINS % (insect damage, % white heads) [9]: 0.65% | DAMINS (number): mean number of insect damage (white head symptoms) [9]: 2.93 | DAMINS % (insect damage, % white heads) [10]: 0.53% | DAMINS (number): mean number of insect damage (white head symptoms) [10]: 2.13 | DAMINS % (insect damage, % white heads) [11]: 0.4% | DAMINS (number): mean number of insect damage (white head symptoms) [11]: 1.74 | DAMINS % (insect damage, % white heads) [12]: 0.39% | DAMINS (number): mean number of insect damage (white head symptoms) [12]: 1.79 | DAMINS % (insect damage, % white heads) (7 DAB, water volume 200 L/ha): 0.55% | DAMINS (number): mean number of insect damage (white head symptoms) (7 DAB, water volume 200 L/ha): 2.4 | DAMINS % (insect damage, % white heads) [13]: 0.84% | DAMINS (number): mean number of insect damage (white head symptoms) [13]: 3.82 | DAMINS % (insect damage, % white heads) [14]: 0.73% | DAMINS (number): mean number of insect damage (white head symptoms) [14]: 3.31 | DAMINS % (insect damage, % white heads) [15]: 0.64% | DAMINS (number): mean number of insect damage (white head symptoms) [15]: 2.84 | DAMINS % (insect damage, % white heads) [16]: 0.49% | DAMINS (number): mean number of insect damage (white head symptoms) [16]: 2.24 | DAMINS % (insect damage, % white heads) (10 DAA, water volume 200 L/ha): 0.25% | DAMINS (number): mean number of insect damage (white head symptoms) (10 DAA, water volume 200 L/ha): 0.99 | DAMINS % (insect damage, % white heads) [17]: 0.63% | DAMINS (number): mean number of insect damage (white head symptoms) [17]: 2.92 | DAMINS % (insect damage, % white heads) [18]: 0.58% | DAMINS (number): mean number of insect damage (white head symptoms) [18]: 2.26 | DAMINS % (insect damage, % white heads) [19]: 0.41% | DAMINS (number): mean number of insect damage (white head symptoms) [19]: 1.77 | DAMINS % (insect damage, % white heads) [20]: 0.31% | DAMINS (number): mean number of insect damage (white head symptoms) [20]: 1.49 | DAMINS % (insect damage, % white heads) (10 DAB, water volume 200 L/ha): 0.44% | DAMINS (number): mean number of insect damage (white head symptoms) (10 DAB, water volume 200 L/ha): 1.84 | DAMINS % (insect damage, % white heads) [21]: 0.71% | DAMINS (number): mean number of insect damage (white head symptoms) [21]: 3.39 | DAMINS % (insect damage, % white heads) [22]: 0.66% | DAMINS (number): mean number of insect damage (white head symptoms) [22]: 3.11 | DAMINS % (insect damage, % white heads) [23]: 0.38% | DAMINS (number): mean number of insect damage (white head symptoms) [23]: 1.65 | DAMINS % (insect damage, % white heads) [24]: 0.33% | DAMINS (number): mean number of insect damage (white head symptoms) [24]: 1.39 | DAMINS % (insect damage, % white heads) (14 DAB, water volume 200 L/ha): 0.39% | DAMINS (number): mean number of insect damage (white head symptoms) (14 DAB, water volume 200 L/ha): 1.53 | DAMINS % (insect damage, % white heads) [25]: 0.56% | DAMINS (number): mean number of insect damage (white head symptoms) [25]: 2.35 | DAMINS % (insect damage, % white heads) [26]: 0.64% | DAMINS (number): mean number of insect damage (white head symptoms) [26]: 2.82 | DAMINS % (insect damage, % white heads) [27]: 0.45% | DAMINS (number): mean number of insect damage (white head symptoms) [27]: 1.94 | DAMINS % (insect damage, % white heads) [28]: 0.3% | DAMINS (number): mean number of insect damage (white head symptoms) [28]: 1.25 | DAMINS % (insect damage, % white heads) (21 DAB, water volume 200 L/ha): 0.36% | DAMINS (number): mean number of insect damage (white head symptoms) (21 DAB, water volume 200 L/ha): 1.47 | DAMINS % (insect damage, % white heads) [29]: 0.8% | DAMINS (number): mean number of insect damage (white head symptoms) [29]: 3.41 | DAMINS % (insect damage, % white heads) [30]: 0.6% | DAMINS (number): mean number of insect damage (white head symptoms) [30]: 2.7 | DAMINS % (insect damage, % white heads) [31]: 0.39% | DAMINS (number): mean number of insect damage (white head symptoms) [31]: 1.64
